Test results from PMC7155171, “Probing the Open Global Health Chemical Diversity Library for Multistage-Active Starting Points for Next-Generation Antimalarials” (ACS Infectious Diseases, 2020).
Where two headings read alike, the source gives them in different places.

Columns and labels:
[1] = system: P. falciparum Dd2 (PfLuc) line expressing firefly luciferase, asexual blood stage; assay: microbe, parasite or virus in culture; type: cell-based, Plasmodium falciparum; conditions: Plasmodium falciparum
[2] = system: P. falciparum Dd2; assay: SYBR green I asexual blood stage proliferation assay (96 h); type: cell-based, Plasmodium falciparum; conditions: Plasmodium falciparum, DD2, 11-pt dose response, 96hr
[3] = DD2, read-out: P. falciparum Luciferase ABS 11-pt Reconfirmation Dose Response (48hr): IC50, 11-pt dose response, 48hr
[4] = DD2, 8-pt dose response, 96hr, read-out: P. falciparum Luciferase ABS 8-pt Reconfirmation Dose Response (96hr): IC50
[5] = DD2, 11-pt dose response, 48hr, read-out: P. falciparum Luciferase ABS 11-pt Reconfirmation Dose Response (48hr): Maximum inhibition (%)
[6] = DD2, 11-pt dose response, 96hr, read-out: P. falciparum Luciferase ABS 11-pt Reconfirmation Dose Response (96hr): IC50
[7] = DD2, 11-pt dose response, 96hr, read-out: P. falciparum Luciferase ABS 11-pt Reconfirmation Dose Response (96hr): Maximum inhibition (%)
[8] = read-out: P. falciparum Sybr Green I ABS 11-pt Reconfirmation Dose Response (96hr): IC50
[9] = read-out: P. falciparum Sybr Green I ABS 11-pt Reconfirmation Dose Response (96hr): Maximum inhibition (%)
[10] = DD2, 8-pt dose response, 96hr, read-out: P. falciparum Luciferase ABS 8-pt Reconfirmation Dose Response (96hr): Maximum inhibition (%)
[11] = DD2, read-out: CDD P. falciparum Luciferase ABS 11-pt Reconfirmation Dose Response (48hr): IC50 (μM), 11-pt dose response, 48hr
[12] = DD2, 8-pt dose response, 96hr, read-out: CDD P. falciparum Luciferase ABS 8-pt Reconfirmation Dose Response (96hr): IC50
[13] = DD2, 8-pt dose response, 96hr, read-out: CDD P. falciparum Luciferase ABS 8-pt Reconfirmation Dose Response (96hr): Maximum inhibition (%)
[14] = DD2, 11-pt dose response, 48hr, read-out: CDD P. falciparum Luciferase ABS 11-pt Reconfirmation Dose Response (48hr): Maximum inhibition (%)
[15] = DD2, 11-pt dose response, 96hr, read-out: CDD P. falciparum Luciferase ABS 11-pt Reconfirmation Dose Response (96hr): IC50
[16] = DD2, 11-pt dose response, 96hr, read-out: CDD P. falciparum Luciferase ABS 11-pt Reconfirmation Dose Response (96hr): Maximum inhibition (%)
[17] = Sybr Green I, read-out: CDD P. falciparum Sybr Green I ABS 11-pt Reconfirmation Dose Response (96hr): IC50
[18] = Sybr Green I, read-out: CDD P. falciparum Sybr Green I ABS 11-pt Reconfirmation Dose Response (96hr): Maximum inhibition (%)

SMILES	IC50 [1, 3]	IC50 [1, 4]	Emax [1, 5]	IC50 [1, 6]	Emax [1, 7]	IC50 [2, 8]	Emax [2, 9]	Emax [1, 10]	IC50 [1, 11]	IC50 [1, 12]	Emax [1, 13]	Emax [1, 14]	IC50 [1, 15]	Emax [1, 16]	IC50 [2, 17]	Emax [2, 18]	IC50 ([1]; 96 h incubation, Dd2 luciferase, read-out: 96 hour Pfluc IC50)
c1cncc(N2CCCC3(CCN(CCN4CCCC4)CC3)C2)c1 [DDD01032557]	7.21 µM	1.19 µM	83.2%	1.41 µM	99.7%	2440 nM	93.7%										
c1ccc(C2CN(C3CC3)CC3(CCN(Cc4cscn4)CC3)C2)cc1 (centres unmarked) [DDD01253863]	4.6 µM	1.16 µM	85%	3.45 µM	96.3%	> 4160 nM		78.8%									
CC(C)(C)C(=O)N1C[C@H](c2ccsc2)[C@H]2CN(C3CCCCC3)CC[C@H]21 [DDD01058940]									> 12.5 µM	0.84 µM	83.6%	59.1%	2.03 µM	90.2%	8800 nM	74.2%	
Clc1ccc(C2(CNC3=NCCN3)CC2)cc1 [DDD01067441]									1.96 µM	0.55 µM	95.1%	96.7%	0.613 µM	99.9%	760 nM	101%	
COCCCN1CCCN(C(C)C(=O)Nc2cccc(I)c2)CC1 (centres unmarked) [DDD01080015]									2.64 µM	0.87 µM	92%	71.5%	1.94 µM	94.8%	10600 nM	77.7%	
CC(NCC1CCN(CCO)CC1)c1ccc(OC(F)(F)F)cc1 (centres unmarked) [DDD01073716]									3.68 µM	0.46 µM	95.5%		0.546 µM	99.2%	2880 nM	95.9%	0.55 µM
Fc1cccc(CN2C[C@@H]3CN(Cc4ccccn4)C[C@@H]3C2)c1 [DDD01029091]									1.16 µM	0.62 µM	95.3%	94%	0.354 µM	100%	2340 nM		
Cc1cccc(OC(C)C(=O)NCC2(N(C)C)CCCC2)c1 (centres unmarked) [DDD01069466]									> 12.5 µM	0.95 µM		46.7%	2.5 µM	85.7%	2140 nM	64.8%	
OCCN1CCC(CNCc2ccccc2OC(F)(F)F)CC1 [DDD01297525]	> 12.5 µM	1.51 µM	54.6%	5.42 µM	88.7%	7440 nM	77.9%	88.7%									
Fc1cccc(CN2CCC(c3cc4ncccc4cn3)CC2)c1F [DDD01058754]									1.06 µM	0.78 µM	94.4%	95.6%	0.571 µM	99.9%	309 nM	86.9%	
Clc1ccccc1C1(c2ccnc(C3CC3)n2)CCNCC1 [DDD01246037]									7.25 µM	0.61 µM	89.2%		1.02 µM	93.1%	4410 nM	78%	
Cc1ccnc(NC(=O)c2[nH]nc(C(C)C)c2Br)c1 [DDD01298775]									3.6 µM	0.39 µM	91.3%	93%	1.39 µM	97%	8740 nM	51.2%	
O=C(Nc1nccs1)C1CCCN1Cc1ccccn1 (centres unmarked) [DDD01068868]									0.884 µM	0.3 µM		91.2%	0.303 µM	99.3%	888 nM	96.4%	
CCN1CCN(c2ccc(F)cc2C(C)NCc2cscn2)CC1 (centres unmarked) [DDD01070576]	> 12.5 µM	1.25 µM	47.9%	2.44 µM		7180 nM	78.2%	87.1%									
Cc1cccc2[nH]c(-c3cn(C4CCNCC4)nn3)nc12 [DDD01250141]									3.07 µM	0.59 µM	94.4%	66.5%	2.16 µM	97.2%	1480 nM	72.3%	
